Results from patent publication US5368712A, “Biologically mimetic synthetic ion channel transducers” (Synporin Technologies, Inc., priority 1990, dated 1994).
Values joined by “and” are separate entries in the source; they are usually repeats but may differ in a detail not shown here. Identical values can stand only once. “Also recorded” adds a separate entry of the source.

Experiments:
[1] = Single channel recordings of synthetic channel proteins in lipid bilayers; settings: for formation of ionic channels in lipid bilayers: single channel recordings in lipid bilayers
Procedure: Using established recording, filtering, digitizing and data processing techniques, single channel recording were made of single channel recordings for tethered tetrameric M2δ proteins and free M2δ proteins (FIGS. 7 and 8 respectively). Conductance (V) and lifetime (T) values were determined from a multiplicity of events, and single channel open and closed lifetimes were discriminated using a published pattern recognition algorithm.
These recordings were made in symmetric 0.5M KCl (pH 7.4) and recorded at 100 mV. […] These were recorded at 0.5M NaCl (pH 7.2) and 100 mV.
Planar lipid bilayers into which the synthetic ion protein channels can be incorporated are prepared using commonly available and well understood lipids and bilayer formation techniques. For example, planar bilayers can be formed by hydrophobic apposition of two lipid monolayers initially formed at an air-water interface. The electrical properties of such protein-free bilayers can be examined using known techniques. Peptides can be incorporated into the bilayers from mixed lipid-peptide monolayers.

[2] = target: T1, tetrameric M2δ synthetic porin (Tetronarce californica, UniProt P02718); assay: Block of tetrameric M2δ synthetic porin by a local anaesthetic derivative, single channel recordings; type: biochemical, Torpedo californica; settings: 25 μM QX-222
T1 construct: multi-functional carrier template (peptide backbone of at least seven amino acids with four basic attachment residues); made in house; host or cells: chemical peptide synthesis (no expression host)
Procedure: Furthermore, the pharmacological specificity of the pure structure generated by the tetrameric M2δ synthetic porin was examined by using a quaternary derivative (QX-222) of the local anaesthetic lidocaine. QX-222 is known to transiently block the flow of current through the AChR channel, thereby reducing the channel open lifetime. FIGS. 9A and […] show comparative single channel recordings of this synthetic porin before (FIG. 9A) and after (FIG. 9B) addition of 25 μM QX-222. The result is that the characteristic brief and long open lifetimes exist prior to application of the anaesthetic, as previously shown in FIG. 7.

With “9 amino acid backbone used as template: nine-residue carrier template K K K P G K E K G without attached oligopeptides (KKKPGKEKG)” the “formation of ionic channels in lipid bilayers” value [1] was “showed similar activity”.
For Cc1cccc(C)c1NC(=O)C[N+](C)(C)C [QX-222], the “effect on channel open time” value [2] was “drastically shortened” and the “effect on single channel conductance V” value [2] was “virutally unaffected”.
For “EKMSTAISVLLAQAVFLLLTSQR [free (monomeric) M2δ, untethered 23-mer synthetic peptide mimicking the acetylcholine receptor M2δ subunit]”, the “single channel conductance V of distinct events” value ([1]; 0.5M NaCl (pH 7.2), 100 mV) was 20 pS and 40 pS and the “formation of ionic channels in lipid bilayers” value [1] was “form discrete ion channels in lipid bilayers; also recorded: forms channels of heterogeneous amplitudes and open lifetimes”.
In the case of “XPDWNWLDFTVITFAYVTEFVDL [22-residue synthetic peptide that mimics the electrical properties of a voltage dependent sodium channel]”, the “selectivity cations versus anions” value [1] is reported as “discriminates cations over anions”, the “selectivity sodium ion versus potassium ion” value [1] is reported as “nonselective between sodium ion and potassium ion” and the “single channel open and close lifetimes” value [1] is reported as “in the millisecond time range”. The voltage dependence [1] was “no specific voltage dependence” and the “single channel conductance of the most frequent event” value ([1]; 0.5M sodium chloride) was 20 pS.
